Test results: patent publication US12478617B2, “Lipidated peptide inhibitors of interleukin-23 receptor” (JANSSEN BIOTECH, INC., priority 2021, dated 2025)
Starred links: 1 amine or outer side, 2 acyl side, 3 side chain; linkers in the order of their positions; H or OH if unused. Positions of bridges follow the written chain, without caps; N, C: chain ends. Non-standard residues stand in square brackets, D forms with d. Residues, ends and D or L forms follow the SMILES beside them. Groups on a side chain read outwards from the residue. *: point of attachment. X7 = C[N+](C)(CCNC(=O)CC[C@H](NC(=O)CCCCCCCCCCCCCCCCC(=O)O)C(=O)O)CC(=O)*; Trp(7-Me) = Cc1cccc2c(C[C@H](N)C(=O)O)c[nH]c12; C18 diacid = O=C(O)CCCCCCCCCCCCCCCCC(=O)*; C16 diacid = O=C(O)CCCCCCCCCCCCCCC(=O)*; γGlu = O=C(O)[C@H](CCC(=O)[*:2])N[*:1]; 2Nal = N[C@@H](Cc1ccc2ccccc2c1)C(=O)O; AEF = NCCOc1ccc(C[C@H](N)C(=O)O)cc1; PEG6 = NCCOCCOCCOCCOCCOCCOCCC(=O)O; Stearoyl = CCCCCCCCCCCCCCCCCC(=O)*; Palmitoyl = CCCCCCCCCCCCCCCC(=O)*; 3Pal = N[C@@H](Cc1cccnc1)C(=O)O; Pen = CC(C)(S)[C@H](N)C(=O)O; Thp = NC1(C(=O)O)CCOCC1; AEEA = NCCOCCOCC(=O)O; Sar = CNCC(=O)O

Target: T1, IL-23R (Homo sapiens, UniProt Q5VWK5)
T1 construct: HEK293 cells containing IL-23R, IL-12RP31 and a firefly luciferase reporter gene driven by a STAT-inducible promoter (Promega); host or cells: HEK293
T1 sequence (Q5VWK5 24-629): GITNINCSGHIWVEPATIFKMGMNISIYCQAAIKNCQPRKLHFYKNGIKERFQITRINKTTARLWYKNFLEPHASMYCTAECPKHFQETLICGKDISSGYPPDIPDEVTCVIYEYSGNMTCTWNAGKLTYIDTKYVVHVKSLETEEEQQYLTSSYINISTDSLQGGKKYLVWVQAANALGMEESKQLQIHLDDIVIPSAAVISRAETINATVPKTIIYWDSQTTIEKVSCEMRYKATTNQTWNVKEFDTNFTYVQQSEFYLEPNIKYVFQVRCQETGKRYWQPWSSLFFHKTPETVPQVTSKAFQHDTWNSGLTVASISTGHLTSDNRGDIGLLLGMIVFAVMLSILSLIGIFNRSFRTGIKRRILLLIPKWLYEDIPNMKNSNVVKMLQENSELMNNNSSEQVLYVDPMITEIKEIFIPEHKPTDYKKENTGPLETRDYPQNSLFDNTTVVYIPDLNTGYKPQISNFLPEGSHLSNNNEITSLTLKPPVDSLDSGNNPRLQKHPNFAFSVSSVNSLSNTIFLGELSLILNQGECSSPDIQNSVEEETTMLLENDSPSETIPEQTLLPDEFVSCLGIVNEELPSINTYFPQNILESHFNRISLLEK
Assay: IL23R Reporter Assay
Assay type: cell-based
Outline: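 Reporter cells read out IL-23-driven STAT3 activation; compounds were serially diluted in DMSO. After 5 h at 37 °C, 5% CO2, cells were brought to 20 °C and luminescence was measured with BioGlo reagent.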

| SMILES | IC50 [nM] |
| --- | --- |
| CC(=O)NCCCC[C@@H]1NC(=O)[C@H](Cc2c[nH]c3c(C)cccc23)NC(=O)[C@H]([C@@H](C)O)NC(=O)[C@H](CC(N)=O)NC(=O)[C@@H](NC(=O)[C@@H](CCCNC(=N)N)NC(C)=O)C(C)(C)SSC(C)(C)[C@@H](C(=O)N[C@@H](Cc2ccc(OCCN)cc2)C(=O)N[C@@H](Cc2ccc3ccccc3c2)C(=O)NC2(C(=O)N[C@@H](CCC(=O)O)C(=O)N[C@@H](CC(N)=O)C(=O)N[C@@H](Cc3cccnc3)C(=O)N(C)CC(=O)N[C@@H](CCCCNC(=O)COCCOCCNC(=O)COCCOCCNC(=O)CC[C@H](NC(=O)CCCCCCCCCCCCCCC(=O)O)C(=O)O)C(N)=O)CCOCC2)NC1=O [Example 17, MeCO-r-Pen*-N-T-7MeW-K(Ac)-Pen*-AEF-2Nal-THP-E-N-3Pya-Sar-K(PEG2PEG2gEC16OH)-CONH2] (Ac-[dR][Pen]NT[Trp(7-Me)]K(Ac)[Pen][AEF][2Nal][Thp]EN[3Pal][Sar]K([AEEA-AEEA-γGlu-C16 diacid])-NH2; disulfide 2-7) | 0.036 |
| CCCCCCCCCCCCCCCC(=O)N[C@@H](CCC(=O)NCCCC[C@H](NC(=O)C1(NC(=O)[C@H](Cc2ccc3ccccc3c2)NC(=O)[C@H](Cc2ccc(OCCN)cc2)NC(=O)[C@H]2NC(=O)[C@H](CCCCNC(C)=O)NC(=O)[C@H](Cc3c[nH]c4c(C)cccc34)NC(=O)[C@H]([C@@H](C)O)NC(=O)[C@H](CC(N)=O)NC(=O)[C@@H](NC(C)=O)C(C)(C)SSC2(C)C)CCOCC1)C(=O)N[C@@H](CC(N)=O)C(=O)N[C@@H](Cc1cccnc1)C(=O)N(C)CC(N)=O)C(=O)O [Example 75, MeCO-Pen*-N-T-7MeW-K(Ac)-Pen*-AEF-2Nal-THP-K(gEC16)-N-3Pya-Sar-CONH2] (Ac-[Pen]NT[Trp(7-Me)]K(Ac)[Pen][AEF][2Nal][Thp]K([γGlu-Palmitoyl])N[3Pal][Sar]-NH2; disulfide 1-6) | 0.096 |
| CC(=O)NCCCC[C@@H]1NC(=O)[C@H](Cc2c[nH]c3c(C)cccc23)NC(=O)[C@H]([C@@H](C)O)NC(=O)[C@H](CC(N)=O)NC(=O)[C@@H](NC(=O)[C@@H](CCCNC(=N)N)NC(C)=O)C(C)(C)SSC(C)(C)[C@@H](C(=O)N[C@@H](Cc2ccc(OCCN)cc2)C(=O)N[C@@H](Cc2ccc3ccccc3c2)C(=O)NC2(C(=O)N[C@@H](CCCCNC(=O)COCCOCCNC(=O)COCCOCCNC(=O)[C@H]3CCCN3C(=O)CCCCCCCCCCCCCCCCC(=O)O)C(=O)N[C@@H](CC(N)=O)C(=O)N[C@@H](Cc3cccnc3)C(=O)N(C)CC(N)=O)CCOCC2)NC1=O [Example 57, MeCO-r-Pen*-N-T-7MeW-K(Ac)-Pen*-AEF-2Nal-THP-K(PEG2PEG2pC18OH)-N-3Pya-Sar-CONH2] (Ac-[dR][Pen]NT[Trp(7-Me)]K(Ac)[Pen][AEF][2Nal][Thp]K([AEEA-AEEA-dP-C18 diacid])N[3Pal][Sar]-NH2; disulfide 2-7) | 0.3 |
| CCCCCCCCCCCCCCCCCC(=O)N[C@@H](CCC(=O)NCCCC[C@H](NC(=O)C1(NC(=O)[C@H](Cc2ccc3ccccc3c2)NC(=O)[C@H](Cc2ccc(OCCN)cc2)NC(=O)[C@H]2NC(=O)[C@H](CCCCNC(C)=O)NC(=O)[C@H](Cc3c[nH]c4c(C)cccc34)NC(=O)[C@H]([C@@H](C)O)NC(=O)[C@H](CC(N)=O)NC(=O)[C@@H](NC(C)=O)C(C)(C)SSC2(C)C)CCOCC1)C(=O)N[C@@H](CC(N)=O)C(=O)N[C@@H](Cc1cccnc1)C(=O)N(C)CC(N)=O)C(=O)O [Example 31, MeCO-Pen*-N-T-7MeW-K(Ac)-Pen*-AEF-2Nal-THP-K(gEC18)-N-3Pya-Sar-CONH2] (Ac-[Pen]NT[Trp(7-Me)]K(Ac)[Pen][AEF][2Nal][Thp]K([γGlu-Stearoyl])N[3Pal][Sar]-NH2; disulfide 1-6) | 0.052 |
| CC(=O)NCCCC[C@@H]1NC(=O)[C@H](Cc2c[nH]c3c(C)cccc23)NC(=O)[C@H]([C@@H](C)O)NC(=O)[C@H](CC(N)=O)NC(=O)[C@@H](NC(C)=O)C(C)(C)SSC(C)(C)[C@@H](C(=O)N[C@@H](Cc2ccc(OCCN)cc2)C(=O)N[C@@H](Cc2ccc3ccccc3c2)C(=O)NC2(C(=O)N[C@@H](CCCCNC(=O)CCOCCOCCOCCOCCOCCOCCNC(=O)CCOCCOCCOCCOCCOCCOCCNC(=O)CC[C@H](NC(=O)CCCCCCCCCCCCCCC(=O)O)C(=O)O)C(=O)N[C@@H](CC(N)=O)C(=O)N[C@@H](Cc3cccnc3)C(=O)N(C)CC(N)=O)CCOCC2)NC1=O [Example 42, MeCO-Pen*-N-T-7MeW-K(Ac)-Pen*-AEF-2Nal-THP-K(PEG6PEG6gEC16OH)-N-3Pya-Sar-CONH2] (Ac-[Pen]NT[Trp(7-Me)]K(Ac)[Pen][AEF][2Nal][Thp]K([PEG6-PEG6-γGlu-C16 diacid])N[3Pal][Sar]-NH2; disulfide 1-6) | 0.029 |
| CC(=O)NCCCC[C@@H]1NC(=O)[C@H](Cc2c[nH]c3c(C)cccc23)NC(=O)[C@H]([C@@H](C)O)NC(=O)[C@H](CCCCNC(=O)COCCOCCNC(=O)CC[C@H](NC(=O)CCCCCCCCCCCCCCCCC(=O)O)C(=O)O)NC(=O)[C@@H](NC(=O)[C@@H](CCCNC(=N)N)NC(C)=O)C(C)(C)SSC(C)(C)[C@@H](C(=O)N[C@@H](Cc2ccc(OCCN)cc2)C(=O)N[C@@H](Cc2ccc3ccccc3c2)C(=O)NC2(C(=O)N[C@@H](CCCCNC(C)=O)C(=O)N[C@@H](CC(N)=O)C(=O)N[C@@H](Cc3cccnc3)C(=O)N(C)CC(N)=O)CCOCC2)NC1=O [Example 52, MeCO-r-Pen*-K(PEG2gE C18OH)-T-7MeW-K(Ac)-Pen*-AEF-2Nal-THP-K(Ac)-N-3Pya-Sar-CONH2] (Ac-[dR][Pen]K([AEEA-γGlu-C18 diacid])T[Trp(7-Me)]K(Ac)[Pen][AEF][2Nal][Thp]K(Ac)N[3Pal][Sar]-NH2; disulfide 2-7) | 0.15 |

The next lines start with the values.

| IC50 [nM] | SMILES |
| --- | --- |
| 0.059 | CC(=O)NCCCC[C@@H]1NC(=O)[C@H](Cc2c[nH]c3c(C)cccc23)NC(=O)[C@H]([C@@H](C)O)NC(=O)[C@H](CC(N)=O)NC(=O)[C@@H](NC(=O)[C@@H](CCCNC(=N)N)NC(C)=O)C(C)(C)SSC(C)(C)[C@@H](C(=O)N[C@@H](Cc2ccc(OCCN)cc2)C(=O)N[C@@H](Cc2ccc3ccccc3c2)C(=O)NC2(C(=O)N[C@@H](CCCCNC(=O)COCCOCCNC(=O)COCCOCCNC(=O)CC[C@H](NC(=O)CCCCCCCCCCCCCCCCC(=O)O)C(=O)O)C(=O)N[C@@H](CC(N)=O)C(=O)N[C@@H](Cc3cccnc3)C(=O)N(C)CC(N)=O)CCOCC2)NC1=O [Example 27, MeCO-r-Pen*-N-T-7MeW-K(Ac)-Pen*-AEF-2Nal-THP-K(PEG2PEG2gEC18OH)-N-3Pya-Sar-CONH2] (Ac-[dR][Pen]NT[Trp(7-Me)]K(Ac)[Pen][AEF][2Nal][Thp]K([AEEA-AEEA-γGlu-C18 diacid])N[3Pal][Sar]-NH2; disulfide 2-7) |
| 0.033 | CC(=O)NCCCC[C@@H]1NC(=O)[C@H](Cc2c[nH]c3c(C)cccc23)NC(=O)[C@H]([C@@H](C)O)NC(=O)[C@H](CCCCNC(=O)COCCOCCNC(=O)COCCOCCNC(=O)CC[C@H](NC(=O)CCCCCCCCCCCCCCC(=O)O)C(=O)O)NC(=O)[C@@H](NC(=O)[C@@H](CCCNC(=N)N)NC(C)=O)C(C)(C)SSC(C)(C)[C@@H](C(=O)N[C@@H](Cc2ccc(OCCN)cc2)C(=O)N[C@@H](Cc2ccc3ccccc3c2)C(=O)NC2(C(=O)N[C@@H](CCC(=O)O)C(=O)N[C@@H](CC(N)=O)C(=O)N[C@@H](Cc3cccnc3)C(=O)N(C)CC(N)=O)CCOCC2)NC1=O [Example 21, MeCO-r-Pen*-K(PEG2PEG2gEC16OH)-T-7MeW-K(Ac)-Pen*-AEF-2Nal-THP-E-N-3Pya-Sar-CONH2] (Ac-[dR][Pen]K([AEEA-AEEA-γGlu-C16 diacid])T[Trp(7-Me)]K(Ac)[Pen][AEF][2Nal][Thp]EN[3Pal][Sar]-NH2; disulfide 2-7) |
| 0.077 | CC(=O)NCCCC[C@@H]1NC(=O)[C@H](Cc2c[nH]c3c(C)cccc23)NC(=O)[C@H]([C@@H](C)O)NC(=O)[C@H](CC(N)=O)NC(=O)[C@@H](NC(C)=O)C(C)(C)SSC(C)(C)[C@@H](C(=O)N[C@@H](Cc2ccc(OCCN)cc2)C(=O)N[C@@H](Cc2ccc3ccccc3c2)C(=O)NC2(C(=O)N[C@@H](CCCCNC(=O)COCCOCCNC(=O)COCCOCCNC(=O)C[N+](C)(C)CCNC(=O)CC[C@H](NC(=O)CCCCCCCCCCCCCCCCC(=O)O)C(=O)O)C(=O)N[C@@H](CC(N)=O)C(=O)N[C@@H](Cc3cccnc3)C(=O)N(C)CC(N)=O)CCOCC2)NC1=O [Example 118, MeCO-Pen*-N-T-7MeW-K(Ac)-Pen*-AEF-2Nal-THP-K(PEG2PEG2SP6gEC18OH)-N-3Pya-Sar-CONH2] (Ac-[Pen]NT[Trp(7-Me)]K(Ac)[Pen][AEF][2Nal][Thp]K([AEEA-AEEA-X7])N[3Pal][Sar]-NH2; disulfide 1-6) |
| 0.037 | CC(=O)NCCCC[C@@H]1NC(=O)[C@H](Cc2c[nH]c3c(C)cccc23)NC(=O)[C@H]([C@@H](C)O)NC(=O)[C@H](CC(N)=O)NC(=O)[C@@H](NC(C)=O)C(C)(C)SSC(C)(C)[C@@H](C(=O)N[C@@H](Cc2ccc(OCCN)cc2)C(=O)N[C@@H](Cc2ccc3ccccc3c2)C(=O)NC2(C(=O)N[C@@H](CCCCNC(=O)COCCOCCNC(=O)COCCOCCNC(=O)CC[C@H](NC(=O)[C@H](CNC(=O)CCCCCCCCCOc3cccc(C(=O)O)c3)NC(=O)CCCCCCCCCOc3cccc(C(=O)O)c3)C(=O)O)C(=O)N[C@@H](CC(N)=O)C(=O)N[C@@H](Cc3cccnc3)C(=O)N(C)CC(N)=O)CCOCC2)NC1=O [Example 134, MeCO-Pen*-N-T-7MeW-K(Ac)-Pen*-AEF-2Nal-THP-K(PEG2PEG2gEDAP(mXOH)2)-N-3Pya-Sar-CONH2] |
